According to patent US20080227866A1, “Hydroxyphenylalkadiones and Their Use for Masking Bitter Taste and/or for Intensifying Sweet Taste” (SYMRISE GMBH & CO. KG, priority 2005, published 2008):

What was measured:
[1] = Bitterness reduction in a bitter principle solution, rated by a group of experts (caffeine); type: in vivo; details: 100 ppm substance in aqueous 500 ppm caffeine; for % reduction in the bitter impression: calculated from the average panel values; for Bitter impression (1-10) with: panel mean ± 95% confidence interval
Protocol: In order to quantify the reduction in the bitter impression, the bitterness of an aqueous bitter principle solution and of a sample which contained the same amount of bitter principle and a varying amount of the compound given by way of example was determined by a group of experts ([…]). The evaluation was made as a calculation of the reduction (in %) of the bitter impression from the average values of the estimations of the bitter principle solution and of the solutions containing bitter principle and compound given by way of example. 2,4-Dihydrobenzoic acid (2,4-DHB) was used as a comparison from U.S. Pat. No. 5,643,941. HED means homoeriodictyol sodium salt according to EP 1 258 200 B1.
(§1) Table: Bitterness of a bitter principle solution and of a solution containing bitter principle and a compound given by way of example (2,4-DHB=2,4-dihydroxybenzoic acid, HED=homoeriodictyol sodium salt according to EP 1 258 200 B1). “Testers positive” means the number of testers who were able to detect masking; the 95% confidence intervals are stated as errors; p<x means the significance according to the Student t test method (cf. statistics textbooks), n.s. means not significant.

[2] = Intensification of the sweet impression of a sucrose solution, rated by a group of experts; type: in vivo; details: 100 ppm test compound in 5 wt. % sucrose; for % intensification of the sweet impression: calculated from the average panel values; for Sweet impression (1-10) of a 5% strength sucrose solution with Test substance: panel mean ± standard deviation; for number of testers who found the test solution sweeter: second figure in brackets (total/positive)
Protocol: In order to quantify the intensification of the sweet impression, the sweetness of a solution containing 5 wt. % of sucrose and of a sample which contained 5 wt. % of sucrose and 100 ppm of the test compound was determined by a group of experts (classification 0 [not sweet] to 10 [extremely sweet]). The evaluation was made as a calculation of the intensification (in %) of the sweet impression from the average values of the estimations of the sucrose solution and of the solution containing sucrose and compound 2.
Table: Sweetness (a) of a sucrose solution and (b) of a solution containing sucrose and test substance; the standard deviations are stated as errors. In the last column, the total number of testers is stated against the number of testers who found the test solution sweeter.

[3] = Bitterness reduction in a bitter principle solution, rated by a group of experts (quinine hydrochloride); type: in vivo; details: 100 ppm substance in aqueous 5 ppm quinine hydrochloride
Protocol: In order to quantify the reduction in the bitter impression, the bitterness of an aqueous bitter principle solution and of a sample which contained the same amount of bitter principle and a varying amount of the compound given by way of example was determined by a group of experts (classification 0 [not bitter] to 10 [extremely bitter]). The evaluation was made as a calculation of the reduction (in %) of the bitter impression from the average values of the estimations of the bitter principle solution and of the solutions containing bitter principle and compound given by way of example. 2,4-Dihydrobenzoic acid (2,4-DHB) was used as a comparison from U.S. Pat. No. 5,643,941. HED means homoeriodictyol sodium salt according to EP 1 258 200 B1.
as §1

[4] = described in DE 2 161,528; cited from earlier work

O=C(O)c1ccc(O)cc1O [2,4-DHB, 2,4-dihydroxybenzoic acid, reference compound]
Testers positive (number of testers who were able to detect masking) [1]: 9
% reduction in the bitter impression [1]: 3%, n.s.
Bitter impression (1-10) with [1]: 5.0 ± 1.0

COc1cc(/C=C/C(=O)CC(C)=O)ccc1O [compound 1, (5E)-6-(4-hydroxy-3-methoxyphenyl)hex-5-ene-2,4-dione]
Testers positive (number of testers who were able to detect masking) [1]: 9
% reduction in the bitter impression [1]: 21%,
Bitter impression (1-10) with [1]: 5.1 ± 1.0

COc1cc(CCC(=O)CC(C)=O)ccc1O [compound 4, 6-(4-hydroxy-3-methoxyphenyl)hexane-2,4-dione]
Testers positive (number of testers who were able to detect masking) [1]: 15
% reduction in the bitter impression [1]: 34%,
Bitter impression (1-10) with [1]: 3.9 ± 0.8
% intensification of the sweet impression [2]: +13%
Sweet impression (1-10) of a 5% strength sucrose solution with Test substance [2]: 5.3 ± 1.6
number of testers who found the test solution sweeter [2]: 9
Testers positive (number of testers who were able to detect masking) [3]: 10
% reduction in the bitter impression ([3]; calculated from the average panel values): 21%,
Bitter impression (1-10) with ([3]; panel mean ± 95% confidence interval): 1.3 ± 0.8

COc1cc(CCC(=O)C2C(=O)CCC2=O)ccc1O [compound 9, 2-(3-[4-hydroxy-3-methoxyphenyl]propionyl)-cyclopentane-1,3-dione]
antihypertensive action [4]: weak antihypertensive agent

COc1ccc(/C=C/C(=O)CC(C)=O)cc1O [compound 10, (5E)-6-(3-Hydroxy-4-methoxyphenyl)hex-5-ene-2,4-dione]
Testers positive (number of testers who were able to detect masking) [1]: 12
% reduction in the bitter impression [1]: 23%
Bitter impression (1-10) with [1]: 4.6 ± 0.9

COc1ccc(CCC(=O)CC(C)=O)cc1O [compound 11, 6-(3-hydroxy-4-methoxyphenyl)hexane-2,4-dione]
Testers positive (number of testers who were able to detect masking) [1]: 11
% reduction in the bitter impression [1]: 17%, n.s.
Bitter impression (1-10) with [1]: 4.2 ± 0.8
% intensification of the sweet impression [2]: +28%
Sweet impression (1-10) of a 5% strength sucrose solution with Test substance [2]: 6.6 ± 1.2
number of testers who found the test solution sweeter [2]: 13
